Results on 2 molecules are retold here after publication PMC9374667 (Communications Biology, 2022).

“And” between values parts separate entries of the source, which are not always exact repeats. Equal entries are not always repeated.

In test [1] the test system is TNF-α, IL-6, MCP-1, F4/80 (Adgre1), CD11c (Itgax). In words: qRT-PCR of inflammatory related genes and macrophage marker genes in eWAT. In kind it is in vivo, mice. The arrangement: key to Tnf-α / IL-6 / Ccl2 / Adgre1 / Itgax: relative expression normalized to gapdh, 2^-ΔΔCt method. An excerpt: Total RNA was isolated from 3T3-L1 cells and adipose tissue homogenates using Trizol reagent (Invitrogen, Carlsbad, CA, USA). RNA concentration and purity were examined at 260/280 nm using a nanodrop spectrophotometer (NanoDrop One, Thermo Fisher Scientific, USA). The total RNA was reverse transcribed to cDNA using the EasyScript All-in-One First-Strand cDNA Synthesis SuperMix for qPCR kit (TransGen Biotech, Beijing, China). The quantitative reverse transcription polymerase chain reaction was performed using TransStart Top Green qPCR SuperMix (TransGen Biotech, Beijing, China) and an Applied Biosystems 7500 RealTime PCR System (Life Technologies, USA). Relative expression levels were normalized to gapdh expression and quantified using the 2^-ΔΔCt method. The primers were synthesized by Shanghai Sangon Biotech, and the detailed primer sequences were shown in Supplementary Table 5 in the supplementary materials.
Background: Real-time PCR tracks product formation cycle by cycle.

Test [2] relates to IKKε, TBK1, p-TBK1, UCP1, p-AMPKα. The test can be described thus: Western blotting of eWAT. In kind it is in vivo. Conditions: db/db mice. On the procedure: The adipose tissue or 3T3-L1 adipocytes were homogenized by ultrasound in an ice‐cold RIPA lysis buffer containing 1% PMSF and centrifuged at 12,000 × g at 4°C for 15 min to collect the supernatant. The BCA protein assay kit (Beyotime, Shanghai, China) was used to detect the total protein concentration. Proteins (20-30 μg) of the sample were separated by 10% SDS-PAGE gel and transferred onto polyvinylidene difluoride (PVDF) membranes. Then the PVDF membranes were blocked in 5% skim milk powder in TBS containing 1% Tween-20 (TBST) for 2 h at room temperature and washed with TBST for 3 times. The membranes were incubated with the appropriate primary antibody, IKKε (1:1000 dilution), TBK1 (1:1000 dilution), p-TBK1 Ser172 (1:1000 dilution), p-AMPKα Thr172 (1:1000 dilution), UCP1 (1:1000 dilution), and GAPDH (1:1000 dilution) in the blocking buffer solution at 4 °C overnight. After washing, the membranes were incubated with horseradish peroxidase-conjugated secondary antibodies (in 5% skim milk powder) for 1 h at room temperature. Finally, the membranes were treated with enhanced chemiluminescence agents (Tanon, Shanghai, China) and the signals were monitored using the Tanon 5200 multi chemiluminescent imaging system (Tanon, Shanghai, China).
(In western blotting, separated proteins are transferred to a membrane and probed.)

For another test, the target named is T1, IKKε (Mus musculus, UniProt Q9R0T8).
T1 sequence (Q9R0T8 1-717): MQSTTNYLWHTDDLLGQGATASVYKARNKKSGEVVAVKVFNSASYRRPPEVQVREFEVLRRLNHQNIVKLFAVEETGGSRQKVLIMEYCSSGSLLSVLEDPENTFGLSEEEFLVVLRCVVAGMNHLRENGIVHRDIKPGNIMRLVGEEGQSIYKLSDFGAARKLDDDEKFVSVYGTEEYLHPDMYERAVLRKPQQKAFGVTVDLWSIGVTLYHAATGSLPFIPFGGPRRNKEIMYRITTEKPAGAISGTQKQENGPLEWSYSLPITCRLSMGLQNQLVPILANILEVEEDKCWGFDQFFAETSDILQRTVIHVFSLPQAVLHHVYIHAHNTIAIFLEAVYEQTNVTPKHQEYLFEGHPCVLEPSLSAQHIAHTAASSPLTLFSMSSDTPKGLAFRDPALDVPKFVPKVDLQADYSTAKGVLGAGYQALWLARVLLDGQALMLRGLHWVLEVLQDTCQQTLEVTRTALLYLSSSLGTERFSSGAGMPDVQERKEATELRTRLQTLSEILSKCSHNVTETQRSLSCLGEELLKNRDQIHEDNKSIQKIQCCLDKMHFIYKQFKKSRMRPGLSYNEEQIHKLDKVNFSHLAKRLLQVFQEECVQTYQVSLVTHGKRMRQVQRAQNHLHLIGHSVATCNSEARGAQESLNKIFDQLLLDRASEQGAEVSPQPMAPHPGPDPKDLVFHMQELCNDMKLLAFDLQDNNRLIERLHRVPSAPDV
In words: IKKε activity assay in eWAT. In kind it is in vivo, mice. The arrangement: The adipose tissue was ultrasound-crushed in PBS buffer solution (1:9 w/v) to prepare the tissue homogenate; from tissue; host or cells: epididymal white adipose tissue (eWAT) and brown adipose tissue (BAT) of C57BLKS WT and db/db mice. Conditions: for the expression of IKKε in eWAT of db/db mice: Figure 6b, individual values. On the procedure:
The adipose tissue was ultrasound-crushed in PBS buffer solution (1:9 w/v) to prepare the tissue homogenate. The tissue homogenate was centrifuged at 5000 × g for 10 min, and the supernatant was taken for detection. Briefly, samples or standards were added to the microplates pre-coated with IKKε antibody or TBK1 antibody. Then horseradish peroxidase (HRP) labeled antibody was added and incubated at 37 °C for 60 min. After thorough washing, the 3,3′,5,5′-tetramethylbenzidine (TMB) substrate was used for color development, and the absorbance (OD value) was determined at 450 nm.

[3] abbreviates: Figure 5g, BBR 150mg/kg, replicates, first Veh value = 1.

As to `COc1ccc2cc3[n+](cc2c1OC)CCc1cc2c(cc1-3)OCO2` [BBR, Berberine chloride dihydrate], in test [1] (setting [3]), the Adgre1 was 0.3 and 0.2426 and 0.368; the Ccl2 is 0.8769 and 0.7967 and 0.7737; the IL-6 was 0.5766 and 0.5775 and 0.5396; the Itgax was 0.806 and 0.855 and 0.8182. In addition, the Tnf-α in test [1] (setting [3]) was 0.6975 and 0.7551 and 0.7391. The “mRNA levels of TNF-α, IL-6, MCP-1, F4/80 (Adgre1) and CD11c (Itgax) in eWAT” value in test [1] (db/db mice, 5 weeks of treatment, vs vehicle) was “reduced the mRNA levels”.

For `CC(C)Cc1ccc(C(C)C(=O)[O-])cc1.COc1ccc2cc3[n+](cc2c1OC)CCc1cc2c(cc1-3)OCO2.O.O.O.O` [BJ, berberine-ibuprofen], the “Expression of UCP1 and phosphorylation of TBK1 at Ser172 in eWAT” value in test [2] was “increased”. Besides, the “Protein levels of IKKε and TBK1 in eWAT” value in test [2] (both doses of BJ, western blotting) was “significantly reduced”. Also, the “AMPKα Thr172 phosphorylation (p-AMPKα) in eWAT” value in test [2] (inhibited in db/db eWAT) is listed as “restored”. Moreover, the “the expression of IKKε in eWAT of db/db mice” value at IKKε (db/db+BJ 75mg/kg) is 0.731 U/g and 0.653 U/g and 0.634 U/g and 0.668 U/g and 0.673 U/g and 0.708 U/g; on IKKε (db/db+BJ 150mg/kg), 0.443 U/g and 0.517 U/g and 0.416 U/g and 0.438 U/g and 0.466 U/g and 0.49 U/g. In addition, the “IKKε kinase activity in eWAT” value on IKKε (db/db mice, both doses of BJ (75 and 150 mg/kg)) was “significantly reduced”.
